In patent US20240327393A1 (SIRONAX LTD., priority 2021, published 2024):

Test system: HT-1080 (ATCC, CCL-121) cells
Assay: HT-1080 cell viability assay with ferroptosis inducer RSL3 (Cell Titer-Glo)
Format: cell-based
Conditions: HT-1080 cells treated with RSL3; 3-fold, 10-point dilution, 1.1 μM highest concentration; Table 3; read-out: EC50 (nM), ferroptosis inhibitory activity
In short: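 EC50 was derived by sigmoidal dose-response regression of CellTiter-Glo luminescence viability, expressed relative to untreated wells. Compounds were tested in a ten-point, threefold dilution series (highest 1.1 μM) in the presence of the ferroptosis inducer RSL3. HT-1080 cells had been seeded at 6000 per well and grown overnight first.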

EC50	SMILES
0.1 to 100 nM	Cc1cc(N2CCC(C(F)(F)F)C2)ccc1Nc1ccc2c(c1)OCC(=O)N2 (stereo not shown) [Compound 588, 7-((2-methyl-4-(3-(trifluoromethyl)pyrrolidin-1-yl)phenyl)amino)-2H-benzo[b][1,4]oxazin-3(4H)-one]

Same assay, conditions: Homo sapiens; HT-1080 cells treated with RSL3; 3-fold, 10-point dilution, 1.1 μM highest concentration; Table 3; read-out: EC50 (nM), ferroptosis inhibitory activity

SMILES	EC50
C[C@H]1CN(c2ccc(Nc3ccc4c(c3)OCC(=O)N4)cc2)CCN1C(=O)C(F)(F)F [Compound 553, (S)-7-((4-(3-methyl-4-(2,2,2-trifluoroacetyl)piperazin-1-yl)phenyl)amino)-2H-benzo[b][1,4]oxazin-3(4H)-one]	0.1 to 100 nM
O=C1COc2cc(Nc3ccc(N4CCC(F)CC4)cc3)cnc2N1 [Compound 554, 7-((4-(4-fluoropiperidin-1-yl)phenyl)amino)-2H-pyrido[3,2-b][1,4]oxazin-3(4H)-one]	0.1 to 100 nM
Cc1cc(N2CCC(O)(C(F)(F)F)CC2)ccc1Nc1ccc2c(c1)OCCC(=O)N2 [Compound 555, 8-((4-(4-hydroxy-4-(trifluoromethyl)piperidin-1-yl)-2-methylphenyl)amino)-2,3-dihydrobenzo[b][1,4]oxazepin-4(5H)-one]	0.1 to 100 nM
O=C1CCOc2cc(Nc3ccc(N4CCC(O)(C(F)(F)F)CC4)cc3)ccc2N1 [Compound 556, 8-((4-(4-hydroxy-4-(trifluoromethyl)piperidin-1-yl)phenyl)amino)-2,3-dihydrobenzo[b][1,4]oxazepin-4(5H)-one]	0.1 to 100 nM
CCC1CN(c2ccc(Nc3ccc4c(c3)OCCC(=O)N4)c(C)n2)CCO1 (stereo not shown) [Compound 557, 8-((6-(2-ethylmorpholino)-2-methylpyridin-3-yl)amino)-2,3-dihydrobenzo[b][1,4]oxazepin-4(5H)-one]	0.1 to 100 nM
Cc1cc(N2CCC(F)CC2)ccc1Nc1cnc2c(c1)OCC(=O)N2 [Compound 558, 7-(4-(4-fluoropiperidin-1-yl)-2-methylphenylamino)-2H-pyrido[3,2-b][1,4]oxazin-3(4H)-one]	0.1 to 100 nM
COC(C)(C)C1CCN(c2ccc(Nc3ccc4c(c3)OCC(=O)N4)c(C)c2)CC1 [Compound 559, 7-((4-(4-(2-methoxypropan-2-yl)piperidin-1-yl)-2-methylphenyl)amino)-2H-benzo[b][1,4]oxazin-3(4H)-one]	0.1 to 100 nM
COC(C)(C)C1CCN(c2ccc(Nc3ccc4c(c3)OCC(=O)N4)cc2)CC1 [Compound 560, 7-((4-(4-(2-methoxypropan-2-yl)piperidin-1-yl)phenyl)amino)-2H-benzo[b][1,4]oxazin-3(4H)-one]	0.1 to 100 nM
CC1CN(c2ccc(Nc3ccc4c(c3)OCC(=O)N4)cc2)CC(C(F)(F)F)O1 (stereo not shown) [Compound 561, 7-((4-(2-methyl-6-(trifluoromethyl)morpholino)phenyl)amino)-2H-benzo[b][1,4]oxazin-3(4H)-one]	0.1 to 100 nM
Cc1cc(N2CC(C)OC(C(F)(F)F)C2)ccc1Nc1ccc2c(c1)OCC(=O)N2 (stereo not shown) [Compound 562, 7-((2-methyl-4-(2-methyl-6-(trifluoromethyl)morpholino)phenyl)amino)-2H-benzo[b][1,4]oxazin-3(4H)-one]	0.1 to 100 nM
Cc1cc(N2CCCC2)ccc1Nc1ccc2c(c1)OCC(=O)N2 [Compound 563, 7-((2-methyl-4-(pyrrolidin-1-yl)phenyl)amino)-2H-benzo[b][1,4]oxazin-3(4H)-one]	0.1 to 100 nM
COc1cc(Nc2ccc(N3CCC(C(F)(F)F)CC3)cc2C)cc2c1NC(=O)CO2 [Compound 564, 5-methoxy-7-((2-methyl-4-(4-(trifluoromethyl)piperidin-1-yl)phenyl)amino)-2H-benzo[b][1,4]oxazin-3(4H)-one]	0.1 to 100 nM
COc1cc(Nc2ccc(N3CCC(C(F)(F)F)CC3)cc2C)cc2c1N(C)C(=O)CO2 [Compound 565, 5-methoxy-4-methyl-7-((2-methyl-4-(4-(trifluoromethyl)piperidin-1-yl)phenyl)amino)-2H-benzo[b][1,4]oxazin-3(4H)-one]	0.1 to 100 nM
Cc1cc(N2CCC(C(F)(F)F)CC2)ccc1Nc1ccc2c(c1)CN(C)C(=O)N2 [Compound 566, 3-methyl-6-({2-methyl-4-[4-(trifluoromethyl)piperidin-1-yl]phenyl}amino)-1,4-dihydroquinazolin-2-one]	0.1 to 100 nM
Cc1cc(N2CCC(C(F)(F)F)CC2)ccc1Nc1ccc2[nH]cnc2c1 [Compound 567]	0.1 to 100 nM
Cc1c(Nc2ccc(N3CCC(C(F)(F)F)CC3)cc2)ccc2c1OCC(=O)N2 [Compound 568, 8-methyl-7-((4-(4-(trifluoromethyl)piperidin-1-yl)phenyl)amino)-2H-benzo[b] [1,4] oxazin-3(4H)-one]	0.1 to 100 nM

Second part, the compound after the results:

EC50	SMILES
0.1 to 100 nM	Cc1cc(N2CCN(CC(F)(F)F)CC2)ccc1Nc1ccc2c(c1)OCC(=O)N2 [Compound 569, 7-((2-methyl-4-(4-(2,2,2-trifluoroethyl)piperazin-1-yl)phenyl)amino)-2H-benzo[b][1,4] oxazin-3(4H)-one]
0.1 to 100 nM	Cc1cc(N2CCC(C(F)(F)F)CC2)ccc1Nc1ccc2c(c1)OC(CO)C(=O)N2C (stereo not shown) [Compound 570, 2-(hydroxymethyl)-4-methyl-7-((2-methyl-4-(4-(trifluoromethyl)piperidin-1-yl)phenyl)amino)-2H-benzo[b][1,4]oxazin-3(4H)-one]
0.1 to 100 nM	Cc1cc(N2CCC(C(F)(F)F)CC2)ccc1Nc1ccc2[nH]cc(C(N)=O)c2c1 [Compound 571, 5-((2-methyl-4-(4-(trifluoromethyl)piperidin-1-yl)phenyl)amino)-1H-indole-3-carboxamide]
0.1 to 100 nM	Cc1cc(N2CC(F)C2)ccc1Nc1ccc2c(c1)OCC(=O)N2 [Compound 572, 7-(4-(3-fluoroazetidin-1-yl)-2-methylphenylamino)-2H-benzo[b][1,4]oxazin-3(4H)-one]
0.1 to 100 nM	CCC1CN(c2ccc(Nc3ccc4c(c3)CNC(=O)N4)c(C)n2)CCO1 (stereo not shown) [Compound 573, 6-{[6-(2-ethylmorpholin-4-yl)-2-methylpyridin-3-yl]amino}-3,4-dihydro-1H-quinazolin-2-one]
0.1 to 100 nM	Cc1cc(N2CCC(C)CC2)ccc1Nc1cnc2c(c1)OCC(=O)N2 [Compound 575, 7-((2-methyl-4-(4-methylpiperidin-1-yl)phenyl)amino)-2H-pyrido[3,2-b][1,4]oxazin-3(4H)-one]
0.1 to 100 nM	Cc1cc(N2CC(F)(F)C2)ccc1Nc1ccc2c(c1)OCC(=O)N2 [Compound 576, 7-((4-(3,3-difluoroazetidin-1-yl)-2-methylphenyl)amino)-2H-benzo[b][1,4]oxazin-3(4H)-one]
0.1 to 100 nM	Cc1cc(N2CC(C)C2)ccc1Nc1ccc2c(c1)OCC(=O)N2 [Compound 577, 7-((2-methyl-4-(3-methylazetidin-1-yl)phenyl)amino)-2H-benzo[b][1,4]oxazin-3(4H)-one]
0.1 to 100 nM	COC1CN(c2ccc(Nc3ccc4c(c3)OCC(=O)N4)c(C)c2)C1 [Compound 578, 7-((4-(3-methoxyazetidin-1-yl)-2-methylphenyl)amino)-2H-benzo[b][1,4]oxazin-3(4H)-one]
0.1 to 100 nM	Cc1cc(N2CCC(C(F)(F)F)CC2)ccc1Nc1ccc2c(c1)CN(CC(N)=O)C2 [Compound 579, 2-(5-((2-methyl-4-(4-(trifluoromethyl)piperidin-1-yl)phenyl)amino)isoindolin-2-yl)acetamide]
0.1 to 100 nM	Cc1cc(N2CCN(CC(F)(F)F)[C@@H](C)C2)ccc1Nc1ccc2c(c1)OCC(=O)N2 [Compound 580, (S)-7-((2-methyl-4-(3-methyl-4-(2,2,2-trifluoroethyl)piperazin-1-yl)phenyl)amino)-2H-benzo[b][1,4]oxazin-3(4H)-one]
0.1 to 100 nM	C[C@H]1CN(c2ccc(Nc3ccc4c(c3)OCC(=O)N4)cc2)CCN1CC(F)(F)F [Compound 581, (S)-7-((4-(3-methyl-4-(2,2,2-trifluoroethyl)piperazin-1-yl)phenyl)amino)-2H-benzo[b][1,4]oxazin-3(4H)-one]
0.1 to 100 nM	O=C1CSc2cc(Nc3ccc(N4CCC(C(F)(F)F)CC4)cc3)ccc2N1 [Compound 582, 7-((4-(4-(trifluoromethyl)piperidin-1-yl)phenyl)amino)-2H-benzo[b][1,4]thiazin-3(4H)-one]
0.1 to 100 nM	Cc1cc(N2CC(C(F)(F)F)C2)ccc1Nc1ccc2c(c1)OCC(=O)N2 [Compound 583, 7-((2-methyl-4-(3-(trifluoromethyl)azetidin-1-yl)phenyl)amino)-2H-benzo[b][1,4]oxazin-3(4H)-one]
0.1 to 100 nM	Cc1cc(N2CCC2)ccc1Nc1ccc2c(c1)OCC(=O)N2 [Compound 585, 7-((4-(azetidin-1-yl)-2-methylphenyl)amino)-2H-benzo[b][1,4]oxazin-3(4H)-one]
0.1 to 100 nM	Cc1cc(N2CCC2)ccc1Nc1ccc2c(c1)OCCC(=O)N2 [Compound 586, 8-((4-(azetidin-1-yl)-2-methylphenyl)amino)-2,3-dihydrobenzo[b][1,4]oxazepin-4(5H)-one]
0.1 to 100 nM	Cc1cc(N2CCC(C(F)(F)F)C2)ccc1Nc1ccc2c(c1)OCC(=O)N2 (stereo not shown) [Compound 587, 7-((2-methyl-4-(3-(trifluoromethyl)pyrrolidin-1-yl)phenyl)amino)-2H-benzo[b][1,4]oxazin-3(4H)-one]
0.1 to 100 nM	Cc1cc(N2CCC(OC(F)(F)F)C2)ccc1Nc1ccc2c(c1)OCC(=O)N2 (stereo not shown) [Compound 589, 7-((2-methyl-4-(3-(trifluoromethoxy)pyrrolidin-1-yl)phenyl)amino)-2H-benzo[b][1,4]oxazin-3(4H)-one]
0.1 to 100 nM	Cc1cc(N2CC(C(F)(F)F)C2)ccc1Nc1ccc2c(c1)OCCC(=O)N2 [Compound 590]
0.1 to 100 nM	Cc1cc(N2CCC(OC(F)(F)F)C2)ccc1Nc1ccc2c(c1)OCCC(=O)N2 (stereo not shown) [Compound 591, 8-((2-methyl-4-(3-(trifluoromethoxy)pyrrolidin-1-yl)phenyl)amino)-2,3-dihydrobenzo[b][1,4]oxazepin-4(5H)-one]
